Assay results: the kinase profiling compilation of Christmann-Franck et al. (2016)

Columns and labels:
Experiment in all cases: KINOMEscan competition binding
Settings in all cases: compound 10.0 µM
AAK1 (human) = AAK1 (human) (UniProt Q2M2I8)
ACVR1 (human) = ACVR1 (human) (UniProt Q04771)
ADCK4 (human) = ADCK4 (human) (UniProt Q96D53)
AURKA (human) = AURKA (human) (UniProt O14965)
AURKB (human) = AURKB (human) (UniProt Q96GD4)
AURKC (human) = AURKC (human) (UniProt Q9UQB9)
BMP2K (human) = BMP2K (human) (UniProt Q9NSY1)
CDK7 (human) = CDK7 (human) (UniProt P50613)
Chain of CDK7 (human) (P50613 whole entry, looked up): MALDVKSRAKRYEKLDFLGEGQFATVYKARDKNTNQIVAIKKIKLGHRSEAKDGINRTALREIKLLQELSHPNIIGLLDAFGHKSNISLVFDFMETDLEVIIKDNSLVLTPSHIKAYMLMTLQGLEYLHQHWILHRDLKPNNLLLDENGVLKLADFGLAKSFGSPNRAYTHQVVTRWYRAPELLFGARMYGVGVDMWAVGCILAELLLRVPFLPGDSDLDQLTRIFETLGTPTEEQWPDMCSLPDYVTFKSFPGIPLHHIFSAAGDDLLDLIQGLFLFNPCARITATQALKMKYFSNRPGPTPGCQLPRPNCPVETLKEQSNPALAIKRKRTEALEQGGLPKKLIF

CSNK1D (human) = CSNK1D (human) (UniProt P48730)
CSNK1E (human) = CSNK1E (human) (UniProt P49674)
CSNK1G3 (human) = CSNK1G3 (human) (UniProt Q9Y6M4)
DCLK1 (human) = DCLK1 (human) (UniProt O15075)
FYN (human) = FYN (human) (UniProt P06241)
GAK (human) = GAK (human) (UniProt O14976)
IRAK3 (human) = IRAK3 (human) (UniProt Q9Y616)
[1] = target: JAK2 JH1 catalytic (human) (UniProt O60674)
LATS2 (human) = LATS2 (human) (UniProt Q9NRM7)
LCK (human) = LCK (human) (UniProt P06239)
MAP4K2 (human) = MAP4K2 (human) (UniProt Q12851)
MAP4K4 (human) = MAP4K4 (human) (UniProt O95819)
MAPK7 (human) = MAPK7 (human) (UniProt Q13164)
MELK (human) = MELK (human) (UniProt Q14680)
MERTK (human) = MERTK (human) (UniProt Q12866)
MINK1 (human) = MINK1 (human) (UniProt Q8N4C8)
MYLK2 (human) = MYLK2 (human) (UniProt Q9H1R3)
Chain of MYLK2 (human) (Q9H1R3 whole entry, looked up): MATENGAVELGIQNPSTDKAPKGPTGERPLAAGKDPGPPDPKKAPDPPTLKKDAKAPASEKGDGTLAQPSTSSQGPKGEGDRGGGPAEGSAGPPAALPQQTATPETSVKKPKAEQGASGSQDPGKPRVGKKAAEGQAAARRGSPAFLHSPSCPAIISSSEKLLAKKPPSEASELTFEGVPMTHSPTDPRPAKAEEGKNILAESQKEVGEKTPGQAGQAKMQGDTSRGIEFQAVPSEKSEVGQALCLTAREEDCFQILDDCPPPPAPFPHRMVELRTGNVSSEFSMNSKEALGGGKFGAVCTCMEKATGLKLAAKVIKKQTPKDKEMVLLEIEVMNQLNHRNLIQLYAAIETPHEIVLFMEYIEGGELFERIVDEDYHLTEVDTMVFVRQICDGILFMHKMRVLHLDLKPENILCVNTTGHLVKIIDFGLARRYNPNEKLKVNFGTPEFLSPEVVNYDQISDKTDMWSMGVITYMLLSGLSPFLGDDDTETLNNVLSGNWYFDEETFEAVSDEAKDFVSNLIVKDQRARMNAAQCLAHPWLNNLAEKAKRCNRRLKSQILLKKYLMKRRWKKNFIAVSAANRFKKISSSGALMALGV

MYLK3 (human) = MYLK3 (human) (UniProt Q32MK0)
Chain of MYLK3 (human) (Q32MK0 whole entry, looked up): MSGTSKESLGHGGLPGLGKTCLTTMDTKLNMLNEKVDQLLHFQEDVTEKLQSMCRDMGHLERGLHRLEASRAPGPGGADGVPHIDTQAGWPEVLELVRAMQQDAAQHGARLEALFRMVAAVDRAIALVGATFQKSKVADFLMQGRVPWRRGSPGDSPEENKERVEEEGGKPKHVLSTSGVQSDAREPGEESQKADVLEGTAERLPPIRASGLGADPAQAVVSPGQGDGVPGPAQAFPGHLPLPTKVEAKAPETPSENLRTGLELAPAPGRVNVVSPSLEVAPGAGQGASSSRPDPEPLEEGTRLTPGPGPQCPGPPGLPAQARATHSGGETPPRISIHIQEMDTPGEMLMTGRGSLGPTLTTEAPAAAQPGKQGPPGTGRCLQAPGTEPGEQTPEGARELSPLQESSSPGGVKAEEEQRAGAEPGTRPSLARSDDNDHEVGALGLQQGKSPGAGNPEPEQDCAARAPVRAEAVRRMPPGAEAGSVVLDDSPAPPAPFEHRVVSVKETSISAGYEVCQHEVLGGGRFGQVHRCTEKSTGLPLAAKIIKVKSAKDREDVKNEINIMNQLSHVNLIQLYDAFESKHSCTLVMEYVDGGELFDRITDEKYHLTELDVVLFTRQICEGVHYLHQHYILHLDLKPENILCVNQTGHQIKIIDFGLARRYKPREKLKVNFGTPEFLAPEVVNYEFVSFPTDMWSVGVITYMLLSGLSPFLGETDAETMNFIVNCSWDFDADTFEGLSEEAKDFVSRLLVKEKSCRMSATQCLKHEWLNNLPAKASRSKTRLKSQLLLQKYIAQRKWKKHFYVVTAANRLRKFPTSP

MYLK4 (human) = MYLK4 (human) (UniProt Q86YV6)
NEK2 (human) = NEK2 (human) (UniProt P51955)
NEK5 (human) = NEK5 (human) (UniProt Q6P3R8)
NEK9 (human) = NEK9 (human) (UniProt Q8TD19)
NLK (human) = NLK (human) (UniProt Q9UBE8)
PIK3CG (human) = PIK3CG (human) (UniProt P48736)
Chain of PIK3CG (human) (P48736 whole entry, looked up): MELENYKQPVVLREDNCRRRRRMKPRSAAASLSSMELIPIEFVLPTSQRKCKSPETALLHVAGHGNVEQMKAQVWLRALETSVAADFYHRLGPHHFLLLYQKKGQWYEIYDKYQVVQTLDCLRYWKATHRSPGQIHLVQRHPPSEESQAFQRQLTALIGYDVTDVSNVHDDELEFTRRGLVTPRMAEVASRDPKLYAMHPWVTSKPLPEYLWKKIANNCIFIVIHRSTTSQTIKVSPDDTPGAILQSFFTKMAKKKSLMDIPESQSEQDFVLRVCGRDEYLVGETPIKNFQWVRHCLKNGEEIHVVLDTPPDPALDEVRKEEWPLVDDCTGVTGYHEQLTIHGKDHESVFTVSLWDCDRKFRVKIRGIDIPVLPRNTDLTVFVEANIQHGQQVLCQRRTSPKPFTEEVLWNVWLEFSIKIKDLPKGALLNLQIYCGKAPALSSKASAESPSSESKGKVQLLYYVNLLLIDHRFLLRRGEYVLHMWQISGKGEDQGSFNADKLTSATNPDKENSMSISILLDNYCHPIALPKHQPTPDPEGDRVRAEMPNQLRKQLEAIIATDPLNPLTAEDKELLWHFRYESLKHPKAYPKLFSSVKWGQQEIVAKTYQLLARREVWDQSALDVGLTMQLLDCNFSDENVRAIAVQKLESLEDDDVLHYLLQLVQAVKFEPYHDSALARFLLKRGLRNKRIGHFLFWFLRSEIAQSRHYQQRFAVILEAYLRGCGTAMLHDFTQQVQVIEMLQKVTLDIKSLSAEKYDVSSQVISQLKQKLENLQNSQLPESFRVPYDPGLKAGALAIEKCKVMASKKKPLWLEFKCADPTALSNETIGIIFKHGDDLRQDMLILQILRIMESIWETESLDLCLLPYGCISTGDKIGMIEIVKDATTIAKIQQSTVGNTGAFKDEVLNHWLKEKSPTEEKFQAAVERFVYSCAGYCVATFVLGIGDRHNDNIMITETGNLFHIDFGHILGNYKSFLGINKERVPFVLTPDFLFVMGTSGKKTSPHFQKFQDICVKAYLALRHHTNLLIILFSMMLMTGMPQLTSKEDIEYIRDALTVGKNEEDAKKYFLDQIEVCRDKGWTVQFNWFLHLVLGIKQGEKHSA

PIP4K2B (human) = PIP4K2B (human) (UniProt P78356)
Chain of PIP4K2B (human) (P78356 whole entry, looked up): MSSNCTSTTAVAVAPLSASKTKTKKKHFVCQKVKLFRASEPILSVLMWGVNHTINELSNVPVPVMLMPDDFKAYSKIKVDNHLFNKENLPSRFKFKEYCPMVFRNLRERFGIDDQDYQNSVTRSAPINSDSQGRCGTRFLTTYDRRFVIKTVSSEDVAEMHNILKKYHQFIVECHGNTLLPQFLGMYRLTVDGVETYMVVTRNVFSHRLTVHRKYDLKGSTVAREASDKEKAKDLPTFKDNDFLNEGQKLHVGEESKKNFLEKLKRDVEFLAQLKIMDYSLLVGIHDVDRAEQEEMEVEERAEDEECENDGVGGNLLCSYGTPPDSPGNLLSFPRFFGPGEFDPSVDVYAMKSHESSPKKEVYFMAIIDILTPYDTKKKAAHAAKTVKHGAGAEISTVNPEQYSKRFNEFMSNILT

PIP5K1A (human) = PIP5K1A (human) (UniProt Q99755)
PLK1 (human) = PLK1 (human) (UniProt P53350)
Chain of PLK1 (human) (P53350 whole entry, looked up): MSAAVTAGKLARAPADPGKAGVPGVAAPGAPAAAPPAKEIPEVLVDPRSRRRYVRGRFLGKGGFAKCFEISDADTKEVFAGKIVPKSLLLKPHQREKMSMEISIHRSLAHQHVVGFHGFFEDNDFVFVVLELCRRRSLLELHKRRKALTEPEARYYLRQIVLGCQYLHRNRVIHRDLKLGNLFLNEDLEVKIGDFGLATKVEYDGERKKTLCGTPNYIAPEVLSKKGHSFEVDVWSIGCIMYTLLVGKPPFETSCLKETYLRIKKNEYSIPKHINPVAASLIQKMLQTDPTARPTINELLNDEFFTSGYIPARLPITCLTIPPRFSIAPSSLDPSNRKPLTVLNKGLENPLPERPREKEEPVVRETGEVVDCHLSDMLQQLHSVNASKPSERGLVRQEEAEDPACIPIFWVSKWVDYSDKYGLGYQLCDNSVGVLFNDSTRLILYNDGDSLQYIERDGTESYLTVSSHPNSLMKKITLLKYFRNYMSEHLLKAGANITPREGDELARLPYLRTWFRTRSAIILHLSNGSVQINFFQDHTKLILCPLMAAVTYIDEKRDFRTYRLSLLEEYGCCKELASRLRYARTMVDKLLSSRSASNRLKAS

PLK3 (human) = PLK3 (human) (UniProt Q9H4B4)
PLK4 (human) = PLK4 (human) (UniProt O00444)
RIOK1 (human) = RIOK1 (human) (UniProt Q9BRS2)
Chain of RIOK1 (human) (Q9BRS2 whole entry, looked up): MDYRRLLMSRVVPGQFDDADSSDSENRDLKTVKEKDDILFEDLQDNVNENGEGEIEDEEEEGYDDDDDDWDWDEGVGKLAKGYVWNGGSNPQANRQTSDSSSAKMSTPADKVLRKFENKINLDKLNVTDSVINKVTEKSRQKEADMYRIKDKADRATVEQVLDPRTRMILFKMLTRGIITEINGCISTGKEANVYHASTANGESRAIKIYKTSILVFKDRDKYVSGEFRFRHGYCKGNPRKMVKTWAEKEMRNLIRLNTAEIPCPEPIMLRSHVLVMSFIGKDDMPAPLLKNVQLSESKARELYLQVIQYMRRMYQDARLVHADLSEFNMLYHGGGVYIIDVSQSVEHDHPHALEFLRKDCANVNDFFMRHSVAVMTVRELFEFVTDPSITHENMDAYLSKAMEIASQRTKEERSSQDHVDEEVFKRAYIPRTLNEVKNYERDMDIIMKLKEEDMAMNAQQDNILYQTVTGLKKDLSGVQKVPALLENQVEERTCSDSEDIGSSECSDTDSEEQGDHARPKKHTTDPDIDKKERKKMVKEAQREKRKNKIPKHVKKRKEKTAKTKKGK

RIOK2 (human) = RIOK2 (human) (UniProt Q9BVS4)
RIOK3 (human) = RIOK3 (human) (UniProt O14730)
RPS6KA1 KD1 (human) = RPS6KA1 KD1 (human) (UniProt Q15418)
SGK110 (human) = SGK110 (human) (UniProt P0C264)
SLK (human) = SLK (human) (UniProt Q9H2G2)
SRPK3 (human) = SRPK3 (human) (UniProt Q9UPE1)
STK16 (human) = STK16 (human) (UniProt O75716)
STK17A (human) = STK17A (human) (UniProt Q9UEE5)
Chain of STK17A (human) (Q9UEE5 whole entry, looked up): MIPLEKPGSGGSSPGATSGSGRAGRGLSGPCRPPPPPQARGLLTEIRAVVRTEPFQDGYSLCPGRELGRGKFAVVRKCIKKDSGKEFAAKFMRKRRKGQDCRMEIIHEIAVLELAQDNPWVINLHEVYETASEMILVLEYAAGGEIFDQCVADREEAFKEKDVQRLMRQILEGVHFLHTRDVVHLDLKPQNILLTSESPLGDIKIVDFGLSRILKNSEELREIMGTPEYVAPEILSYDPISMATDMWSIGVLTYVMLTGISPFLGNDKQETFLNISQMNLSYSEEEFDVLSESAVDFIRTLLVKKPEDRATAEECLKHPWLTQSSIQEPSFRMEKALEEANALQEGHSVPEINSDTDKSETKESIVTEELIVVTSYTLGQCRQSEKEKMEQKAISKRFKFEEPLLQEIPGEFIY

TNIK (human) = TNIK (human) (UniProt Q9UKE5)
TNK1 (human) = TNK1 (human) (UniProt Q13470)
TTK (human) = TTK (human) (UniProt P33981)
TXK (human) = TXK (human) (UniProt P42681)
[2] = target: TYK2 JH1 catalytic (human) (UniProt P29597)
[3] = target: TYK2 JH2 pseudokinase (human) (UniProt P29597)

Q: With `CN1C(=O)[C@H]2CCC[C@H]2N(C2CCCC2)c2nc(Nc3ccc4ncccc4c3)ncc21` as the molecule, how does the kinase still bound, per cent of control (AAK1 (human)) read?
A: 12%

Q: What about the kinase still bound, per cent of control (ACVR1 (human)) of the same molecule?
A: 16%

Q: And the kinase still bound, per cent of control (ADCK4 (human))?
A: 10%

Q: And the kinase still bound, per cent of control (AURKA (human))?
A: 11%

Q: What about the kinase still bound, per cent of control (AURKB (human)) of the same molecule?
A: 21%

Q: What about the kinase still bound, per cent of control (AURKC (human)) of the same molecule?
A: 4.6%

Q: And the kinase still bound, per cent of control (BMP2K (human))?
A: 2.1%

Q: And the kinase still bound, per cent of control (CDK7 (human))?
A: 30%

Q: What about the kinase still bound, per cent of control (CSNK1D (human)) of the same molecule?
A: 4.3%

Q: And the kinase still bound, per cent of control (CSNK1E (human))?
A: 0.15%

Q: And the kinase still bound, per cent of control (CSNK1G3 (human))?
A: 20%

Q: And the kinase still bound, per cent of control (DCLK1 (human))?
A: 12%

Q: And the kinase still bound, per cent of control (FYN (human))?
A: 34%

Q: What about the kinase still bound, per cent of control (GAK (human)) of the same molecule?
A: 1.8%

Q: What about the kinase still bound, per cent of control (IRAK3 (human)) of the same molecule?
A: 16%

Q: What about the kinase still bound, per cent of control [1] of the same molecule?
A: 15%

Q: What about the kinase still bound, per cent of control (LATS2 (human)) of the same molecule?
A: 14%

Q: What about the kinase still bound, per cent of control (LCK (human)) of the same molecule?
A: 19%

Q: And the kinase still bound, per cent of control (MAP4K2 (human))?
A: 23%

Q: And the kinase still bound, per cent of control (MAP4K4 (human))?
A: 0.8%

Q: What about the kinase still bound, per cent of control (MAPK7 (human)) of the same molecule?
A: 0.25%

Q: And the kinase still bound, per cent of control (MELK (human))?
A: 26%

Q: What about the kinase still bound, per cent of control (MERTK (human)) of the same molecule?
A: 28%

Q: What about the kinase still bound, per cent of control (MINK1 (human)) of the same molecule?
A: 1.6%

Q: And the kinase still bound, per cent of control (MYLK2 (human))?
A: 8.3%

Q: And the kinase still bound, per cent of control (MYLK3 (human))?
A: 7.6%

Q: And the kinase still bound, per cent of control (MYLK4 (human))?
A: 33%

Q: What about the kinase still bound, per cent of control (NEK2 (human)) of the same molecule?
A: 31%

Q: And the kinase still bound, per cent of control (NEK5 (human))?
A: 11%

Q: And the kinase still bound, per cent of control (NEK9 (human))?
A: 30%

Q: What about the kinase still bound, per cent of control (NLK (human)) of the same molecule?
A: 12%

Q: What about the kinase still bound, per cent of control (PIK3CG (human)) of the same molecule?
A: 34%

Q: What about the kinase still bound, per cent of control (PIP4K2B (human)) of the same molecule?
A: 13%

Q: And the kinase still bound, per cent of control (PIP5K1A (human))?
A: 19%

Q: And the kinase still bound, per cent of control (PLK1 (human))?
A: 0.25%

Q: What about the kinase still bound, per cent of control (PLK3 (human)) of the same molecule?
A: 10%

Q: And the kinase still bound, per cent of control (PLK4 (human))?
A: 1.9%

Q: What about the kinase still bound, per cent of control (RIOK1 (human)) of the same molecule?
A: 7.2%

Q: What about the kinase still bound, per cent of control (RIOK2 (human)) of the same molecule?
A: 0.35%

Q: And the kinase still bound, per cent of control (RIOK3 (human))?
A: 7.6%

Q: And the kinase still bound, per cent of control (RPS6KA1 KD1 (human))?
A: 27%

Q: And the kinase still bound, per cent of control (SGK110 (human))?
A: 30%

Q: And the kinase still bound, per cent of control (SLK (human))?
A: 18%

Q: What about the kinase still bound, per cent of control (SRPK3 (human)) of the same molecule?
A: 20%

Q: What about the kinase still bound, per cent of control (STK16 (human)) of the same molecule?
A: 2.2%

Q: And the kinase still bound, per cent of control (STK17A (human))?
A: 3.3%

Q: And the kinase still bound, per cent of control (TNIK (human))?
A: 14%

Q: What about the kinase still bound, per cent of control (TNK1 (human)) of the same molecule?
A: 1.6%

Q: What about the kinase still bound, per cent of control (TTK (human)) of the same molecule?
A: 26%

Q: And the kinase still bound, per cent of control (TXK (human))?
A: 34%

Q: And the kinase still bound, per cent of control [2]?
A: 25%

Q: And the kinase still bound, per cent of control [3]?
A: 31%
